Measurements taken from ChEMBL document CHEMBL4387721, “Proteolysis targeting chimeras (PROTACs) in 'beyond rule-of-five' chemical space: Recent progress and future challenges” (Bioorg Med Chem Lett, 2019).

Assays:
Format in all cases: cell-based
[1] = molecular target: T1, von Hippel-Lindau disease tumor suppressor/Tyrosine-protein kinase ABL1 (Homo sapiens, UniProt P00519+P40337); test: Protac activity at VHL/c-ABL in human K562 cells assessed as induction of c-ABL protein degradation incubated for 24 hrs by immunoblot method
Target sequence in this assay (P00519 whole entry): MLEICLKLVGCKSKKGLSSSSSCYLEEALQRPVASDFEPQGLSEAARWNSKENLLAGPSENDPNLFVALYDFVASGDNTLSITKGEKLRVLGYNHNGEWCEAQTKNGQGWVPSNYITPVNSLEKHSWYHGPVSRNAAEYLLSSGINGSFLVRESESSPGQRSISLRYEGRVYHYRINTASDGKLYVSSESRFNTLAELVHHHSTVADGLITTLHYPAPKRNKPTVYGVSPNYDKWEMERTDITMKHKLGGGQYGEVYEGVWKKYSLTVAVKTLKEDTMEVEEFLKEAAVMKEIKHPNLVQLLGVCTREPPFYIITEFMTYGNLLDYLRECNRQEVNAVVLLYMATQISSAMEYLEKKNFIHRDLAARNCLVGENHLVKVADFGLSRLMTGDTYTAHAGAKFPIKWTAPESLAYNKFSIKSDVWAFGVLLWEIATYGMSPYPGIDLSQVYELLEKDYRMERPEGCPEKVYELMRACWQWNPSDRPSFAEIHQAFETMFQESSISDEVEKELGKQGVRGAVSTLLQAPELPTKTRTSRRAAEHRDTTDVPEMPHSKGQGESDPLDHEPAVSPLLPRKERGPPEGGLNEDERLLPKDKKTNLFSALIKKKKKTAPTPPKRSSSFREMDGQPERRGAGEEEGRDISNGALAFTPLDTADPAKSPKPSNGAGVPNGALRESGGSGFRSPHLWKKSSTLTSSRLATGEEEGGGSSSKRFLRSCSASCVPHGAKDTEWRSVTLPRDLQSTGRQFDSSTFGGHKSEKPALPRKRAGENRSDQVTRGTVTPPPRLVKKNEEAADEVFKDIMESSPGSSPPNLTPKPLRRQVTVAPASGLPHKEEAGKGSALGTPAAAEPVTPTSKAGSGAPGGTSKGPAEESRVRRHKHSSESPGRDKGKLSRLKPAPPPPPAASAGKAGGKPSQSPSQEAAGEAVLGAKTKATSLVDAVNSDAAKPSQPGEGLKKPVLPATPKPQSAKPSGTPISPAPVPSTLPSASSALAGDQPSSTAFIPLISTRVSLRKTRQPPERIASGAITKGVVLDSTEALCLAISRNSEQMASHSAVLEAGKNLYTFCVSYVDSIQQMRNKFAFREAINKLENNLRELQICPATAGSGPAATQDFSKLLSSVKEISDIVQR
Target sequence in this assay (P40337 whole entry): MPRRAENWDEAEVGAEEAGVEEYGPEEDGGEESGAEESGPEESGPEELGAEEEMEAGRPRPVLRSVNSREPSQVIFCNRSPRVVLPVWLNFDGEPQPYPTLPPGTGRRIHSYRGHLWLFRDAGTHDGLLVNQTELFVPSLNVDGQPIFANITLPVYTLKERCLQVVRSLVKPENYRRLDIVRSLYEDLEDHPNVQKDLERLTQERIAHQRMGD

[2] = molecular target: T1, von Hippel-Lindau disease tumor suppressor/Tyrosine-protein kinase ABL1; test: Protac activity at VHL/c-ABL in human K562 cells assessed as induction of c-ABL protein degradation at 1 uM incubated for 24 hrs by immunoblot method relative to control
Target sequence in this assay (P00519 whole entry, looked up): as the sequence (P00519 whole entry) above
Target sequence in this assay (P40337 whole entry, looked up): as the sequence (P40337 whole entry) above

[3] = molecular target: T2, Protein cereblon/Peptidyl-prolyl cis-trans isomerase FKBP1A (Homo sapiens, UniProt P62942+Q96SW2); test: Protac activity at CRBN/FKBP12 in human Jurkat cells assessed as induction of FKBP12 protein degradation up to 1000 nM incubated for 12 hrs by immunoblot method relative to control
Target sequence in this assay (P62942 2-108 limits assumed): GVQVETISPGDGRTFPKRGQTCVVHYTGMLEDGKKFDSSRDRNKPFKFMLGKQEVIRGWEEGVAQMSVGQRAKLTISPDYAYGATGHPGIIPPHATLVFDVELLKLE
Target sequence in this assay (Q96SW2 whole entry partner): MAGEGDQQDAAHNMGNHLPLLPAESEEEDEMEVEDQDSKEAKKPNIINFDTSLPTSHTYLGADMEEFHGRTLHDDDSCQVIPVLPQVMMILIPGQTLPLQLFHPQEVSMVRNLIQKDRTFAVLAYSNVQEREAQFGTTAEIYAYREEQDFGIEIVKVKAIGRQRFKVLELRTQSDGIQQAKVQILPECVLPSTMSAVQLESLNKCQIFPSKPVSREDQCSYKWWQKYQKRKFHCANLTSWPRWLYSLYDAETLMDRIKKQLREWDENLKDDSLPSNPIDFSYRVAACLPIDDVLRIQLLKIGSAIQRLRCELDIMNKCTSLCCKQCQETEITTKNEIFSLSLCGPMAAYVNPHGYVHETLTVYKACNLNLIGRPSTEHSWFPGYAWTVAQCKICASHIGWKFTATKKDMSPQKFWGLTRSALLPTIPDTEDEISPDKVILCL

[4] = molecular target: T2, Protein cereblon/Peptidyl-prolyl cis-trans isomerase FKBP1A; test: Protac activity at CRBN/FKBP12 in human Jurkat cells assessed as induction of FKBP12 protein degradation incubated for 12 hrs by immunoblot method
Target sequence in this assay (P62942 whole entry): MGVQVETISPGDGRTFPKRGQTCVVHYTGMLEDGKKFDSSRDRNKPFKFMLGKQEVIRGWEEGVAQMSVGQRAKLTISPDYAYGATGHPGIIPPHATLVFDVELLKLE
Target sequence in this assay (Q96SW2 whole entry): as the sequence (Q96SW2 whole entry partner) above

| Structure (SMILES) | DC50 [1] | Emax [2] | Emax [3] | DC50 [4] |
| --- | --- | --- | --- | --- |
| Cc1nc(Nc2ncc(C(=O)Nc3c(C)cccc3Cl)s2)cc(N2CCN(CCCCCCOCCOCCOCCCCCC(=O)N[C@H](C(=O)N3C[C@H](O)C[C@H]3C(=O)NCc3ccc(-c4scnc4C)cc3)C(C)(C)C)CC2)n1 | 1000 nM | > 65% |  |  |
| CO[C@H]1C[C@@H]2CC[C@@H](C)[C@@](O)(O2)C(=O)C(=O)N2CCCC[C@H]2C(=O)O[C@H]([C@H](C)C[C@@H]2CC[C@@H](OCCOCc3cn(CCOCCOCCNc4cccc5c4C(=O)N(C4CCC(=O)NC4=O)C5=O)nn3)[C@H](OC)C2)CC(=O)[C@H](C)/C=C(\C)[C@@H](O)[C@@H](OC)C(=O)[C@H](C)C[C@H](C)/C=C/C=C/C=C/1C (some centres undefined) |  |  | > 95% | 0.3 nM |
